This is an account of results in patent US20240167075A1, “METHODS FOR ASSAYING ENZYME ACTIVITY” (Regeneron Pharmaceuticals, Inc., priority 2022, published 2024).

Entries after “also recorded” stand apart in the source; their conditions may differ.

What all share (assay type): biochemical
Data set [1] concerns β4GALT1. As to the kind of experiment: commercial Phosphate Glycosyltransferase Activity kit (R&D Systems), malachite green phosphate detection. Particulars: UDP-Gal glycosyl donor, coupling phosphatase; FIG. 4. The source says:
The commercial Phosphate Glycosyltransferase Activity kit was purchased from R&D Systems. The principle of the assay along with the materials provided were utilized according to manufacturer's conditions. In brief, a diphosphonucleotide sugar (such as UDP-Gal) is used as a glycosyl donor and mixed with a glycosyl acceptor, a phosphatase, and a glycosyltransferase. Glycosyltransferase activity exposes a phosphate of the glycosyl donor to phosphatase activity, releasing free phosphate. The amount of phosphate present should be directly proportional to the amount of formed glycosylated product. The kit also uses a specific phosphatase to remove an inorganic phosphate quantitatively from UDP. The released inorganic phosphate is subsequently quantitated by sensitive colorimetric malachite green phosphate detecting reagents. The amount of inorganic phosphate released by the coupling phosphatase should be equal to the nucleotide sugar consumed or glycoconjugate product generated. Therefore, the rate of inorganic phosphate products should reflect the kinetics of a glycosyltransferase reaction (specific activity of the enzyme). The steps as performed are outlined in FIG. 3.
To estimate the amount of UDP produced in the enzymatic reaction, a phosphate standard curve was established according to manufacturer's conditions. […]

The test system of data set [2] is β4GALT1. As to the kind of experiment: HILIC-UV/MS based assay of β4GALT1 activity (method of Montasser et al.). An excerpt:
Montasser et al. attempted to assay enzyme activity using a method involving quantification of the β4GALT1 substrate UDP-Gal, by measuring its peak area using hydrophilic interaction chromatography-ultraviolet detection-mass spectroscopy. The method as outlined in Montasser et al. was followed, using HILIC-UV-MS to quantitate the decrease of UDP-Gal as a measure of β4GALT1 activity. In particular, the decrease of UDP-Gal could be measured using UV detection and the corresponding increase of GlcNAc-Gal could be measured using MS.
The glycosyl donor was 1.7 nmol UDP-Gal; the glycosyltransferase was 1.1 pmol β4GALT1; and the glycosyl acceptor was 500 nmol GlcNAc. All samples were analyzed using an Acquity UPLC I-Class coupled with Vion IMS Q-Tof (Waters, Milford, MA, USA). A Waters Acquity UPLC Glycoprotein BEH Amide chromatographic column (300 Å, 150 mm×2.1 mm, 1.7 μm) was used to separate the analytes with a column temperature of 45° C. and a flow rate of 0.2 mL/minute. Mobile phase A was 50 mM ammonium acetate at a pH 7.5, and mobile phase B was 5% (v/v) 25 mM ammonium acetate at a pH 7.5 in acetonitrile. A 1 μL aliquot of each mixture (wildtype and mutant β4GALT1) was injected for analysis.
The difference in activity between the wildtype and mutant β4GALT1 was tested using paired two-sided Student's t-test.

Data set [3] deals with β4GALT1. In words: HILIC-FLR-MS based assay of β4GALT1 activity with 2-AB-G0F labeling substrate. The following applies: 1.1 pmol B4GALT1, 1.7 nmol UDP-Gal, 10 pmol 2-AB-G0F, room temperature, 0 to 60 minutes; FIG. 8, 12, 13. Here is the method:
Specifically, the enzymatic activities were measured using uridine diphosphate galactose (UDP-Gal) as a donor substrate and a labeled glycan (2-AB-G0F) as the labeling substrate. The experiment was carried out over eight different time points.
The enzymatic reaction was initiated by adding 1.1 pmol of B4GALT1 into a mixture of 1.7 nmol UDP-Gal (the glycosyl donor) and 10 pmol of 2-AB-G0F (the glycosyl acceptor), and the mixture was incubated at room temperature for 2, 5, 10, 15, 25, 40, and 60 minutes. The sample representing the initial time point (0 min) was prepared by omitting the enzyme. This HILIC-FLR-MS based method was used to quantitate both the decrease of UDP-Gal and the increase in formation of the products (G1F/G2F).
All samples were analyzed using an Acquity UPLC I-Class coupled with Vion IMS Q-Tof (Waters, Milford, MA, USA). A Waters Acquity UPLC Glycoprotein BEH Amide chromatographic column (300 Å, 150 mm×2.1 mm, 1.7 μm) was used to separate the analytes with a column temperature of 60° C. and a flow rate of 0.5 mL/minute. Mobile phase A was 50 mM ammonium acetate at a pH 4.4, and mobile phase B was acetonitrile. A 5 μL aliquot of each mixture was injected onto the column for HILIC-MS analysis. The sample run time was 12 minutes.
The samples were monitored using a UV detector at a wavelength of 280 nm and fluorescence with excitation at a wavelength of 330 nm and emission at a wavelength of 420 nm. The Waters Vion IMS Q-Tof mass spectrometer was operated in positive mode and the mass spectra were acquired with a m/z range between 600 and 2000. UDP-Gal was quantitated and the data were collected and processed using UNIFI software (Waters).

As to “Beta-1,4-galactosyltransferase 1 [wildtype β4GALT1]”, the “specific activity (enzyme activity) determined using a commercial kit” value in data set [1] is “less active than β4GALT1 with N352S mutation”. In addition, the “decrease in UDP-Gal (UV peak area)” value in data set [2] (1.7 nmol UDP-Gal, 1.1 pmol β4GALT1, 500 nmol GlcNAc, 2, 5, 10, 15, 25, 40, and 60 minutes, FIG. 5) is given as “significantly more”. The “increase in the amounts of the product (GlcNAc-Gal) over time, MS” value in data set [2] (2, 5, 10, 15, 25, 40, and 60 minutes, FIG. 6) is recorded as “significantly more”. Also, in data set [2] (wildtype compared to mutant, FIG. 5), the “activity suggested by decrease in UDP-Gal” value is given as “higher activity”. In data set [3], the “fluorescent signal for 2-AB-G0F (labeling substrate) over time” value was “reduction in the signal; also recorded: declines substantially over time”; the “signal for the products 2-AB-G1F and 2-AB-G2F over time” value is reported as “increase substantially over time”.

B1: β4GALT1 with N352S mutation: missense variant (rs551564683, p.Asn352Ser) in β4GALT1 (protein, UniProt P15291 1-398, looked up, variant N352S)
chain: MRLREPLLSGSAAMPGASLQRACRLLVAVCALHLGVTLVYYLAGRDLSRLPQLVGVSTPLQGGSNSAAAIGQSSGELRTGGARPPPPLGASSQPRPGGDSSPVVDSGPGPASNLTSVPVPHTTALSLPACPEESPLLVGPMLIEFNMPVDLELVAKQNPNVKMGGRYAPRDCVSPHKVAIIIPFRNRQEHLKYWLYYLHPVLQRQQLDYGIYVINQAGDTIFNRAKLLNVGFQEALKDYDYTCFVFSDVDLIPMNDHNAYRCFSQPRHISVAMDKFGFSLPYVQYFGGVSALSKQQFLTINGFPNNYWGWGGEDDDIFNRLVFRGMSISRPNAVVGRCRMIRHSRDKKNEPSPQRFDRIAHTKETMLSDGLNSLTYQVLDVQRYPLYTQITVDIGTPS
B1: in data set [3], the “fluorescent signal for 2-AB-G0F (labeling substrate) over time” value is recorded as “less so”; the “signal for the products 2-AB-G1F and 2-AB-G2F over time” value is recorded as “less so”.
